According to patent US8039499B2, “Ester compound and its use” (Sumitomo Chemical Company, Limited, priority 2006, dated 2011):

Columns and labels:
adult houseflies = assay: Test Example 2: housefly knock down, spray in cubic glass chamber; assay type: in vivo; details: active ingredient concentration 0.00625%, 0.7 ml sprayed, counted 10 minutes after spraying, repeated twice
Procedure: The formulation of the sample compound obtained in Formulation Example 7 was diluted with dichloromethane/deodorized kerosene=1/9 mixed solution so that the active ingredient concentration was 0.00625%, to prepare a test solution.
Ten adult houseflies (4 or 5 males and 4 or 5 females each) were left in a cubic glass chamber (70 cm at each side), and 0.7 ml of the test solution was sprayed through a small window at the side of the chamber using a spray gun at a spraying pressure of 0.9 kg/cm^2. 10 minutes after spraying, the number of knocked-down insects was counted (repeated twice).

[1] = system: German cockroach (Blattella germanica); assay: Test Example 3: German cockroach knock down, spray in test chamber; assay type: in vivo; details: active ingredient concentration 0.00625%, 1.5 ml sprayed, counted 1 minutes after spraying, repeated twice
Procedure: The formulation of the sample compound obtained in Formulation Example 7 was diluted with dichloromethane/deodorized kerosene=1/9 mixed solution so that the active ingredient concentration was 0.00625%, to prepare a test medicinal solution.
A container (8.75 cm in diameter, 7.5 cm in height, bottom covered 16-mesh iron net and inside wall painted butter for preventing tested pill bugs to escape) having 10 German cockroach (5 males and 5 females, Blattella germanica) therein was set on the bottom of a test chamber (46 cm×46 cm, height: 70 cm). From a height of 60 cm above the upper surface of the container, 1.5 ml of the test solution was sprayed using a spray gun at a spraying pressure of 0.4 kg/cm^2. After 30 seconds, the German cockroach were taken out and put into a clean plastic cup having 8.2 cm in diameter. The lid having holes was covered on the cup. 1 minutes after spraying, the number of knocked-down insects was counted (repeated twice).

SMILES | knock down ratio of sample insects (adult houseflies) [%] | knock down ratio of sample insects [1] [%]
C#CCN1CC(=O)N(COC(=O)[C@@H]2[C@@H](C=C(C)C)C2(C)C)C1=O [comparative compound (A), 2,5-dioxo-3-(2-propynyl)imidazolidine-1-ylmethyl (1R)-trans-2,2-dimethyl-3-(2-methyl-1-propenyl)cyclopropane carboxylate] | 42 | 
C#CCN1CC(=O)N(COC(=O)[C@@H]2[C@@H](/C=C(\C)C=NOC)C2(C)C)C1=O [present compound (1), 2,5-dioxo-3-(2-propynyl)imidazolidin-1-ylmethyl (1R)-trans-3-[(E)-3-methoxyimino-2-methyl-1-propenyl]-2,2-dimethylcyclopropanecarboxylate] | 100 | 100
C#CCc1ccc(COC(=O)[C@@H]2[C@@H](/C=C(\C)C=NOC)C2(C)C)o1 [comparative compound (B), 5-(2-propynyl)furan-2-ylmethyl (1R)-trans-3-[(E)-3-methoxyimino-2-methyl-1-propenyl]-2,2-dimethylcyclopropanecarboxylate] |  | 0
